Columns and labels:
in vitro [1] = format: cell-based, human; settings: human, Cells viability of SH-SY5Y cell line (% of control)
Procedure: (§1) Human neuroblastoma SH-SY5Y and human liver hepatocellular HepG2 cell lines were purchased from the American Type Culture Collections (ATCC). SH-SY5Y cells were cultured in a Dulbecco’s Modified Eagle Medium (DMEM) supplemented with Ham F12 medium (ratio 1:1), whereas HepG2 cells in Eagle’s Minimum Essential Medium (EMEM). Additionally, all culture medium was supplemented with 10% foetal bovine serum (FBS), streptomycin (100 µg/mL) and penicillin (100 U/mL). The cells were seeded into flasks containing supplemented medium and maintained in a humidified atmosphere of 5% CO2 and 95% air at 37 °C. The cell viability assay was performed in confluence of the cells in serum free medium (without FBS) was 80–90%.
(§2) […]. SH-SY5Y cells and HepG2 cells were seeded on 96-well plate with a density of 27–29 × 10^3 cells/well and 12–14 × 10^3/well respectively. […]. The DMSO concentration of every well in final dilutions was equal to or less than 0.1%. After incubation with compounds, MTT was added and 2 h later, the absorbance was measured at 492 nm. The result was expressed as the percentage of control cells (cultured in serum-free medium containing 0.1% of DMSO) which was set to 100%. The MTT test was performed in three independent replications. Data analysis was performed by using GraphPad Prism 5.0 Software.
SH-SY5Y a standard cell line used for determining neurocytotoxic effect of potential drug. Moreover it is well-established in vitro model of neurodegenerative disorders. […].

in vitro [2] = format: cell-based, human; settings: human
Procedure: as §1, §2
. HepG2 is a commonly used in vitro model for the investigation of hepatocytotoxic effect of xenobiotics [40]^,[41]. In our study, we evaluated the toxicity of our new analogs against […]. […]

[3] = cited from earlier work

Structure (SMILES): Nc1c2c(nc3ccccc13)CCCC2 [Tacrine, 9-amino-1,2,3,4-tetrahydroacridine, reference compound]
- viability at 12.5 µM (in vitro [1]): 98.7 ± 4.5%
- viability at 50 µM (in vitro [1]): 97.2 ± 2.1%
- viability at 100 µM (in vitro [1]): 68.9 ± 2.9%
- IC50 (in vitro [2]): 190 µM
- bioavailability of the oral formulation [3]: 9.9–36.4%

— PMC8979514 (Journal of Enzyme Inhibition and Medicinal Chemistry, 2022)
